± gives the expanded uncertainty stated by the source.
Assay: activity coefficient (dimensionless); of the first substance listed, at infinite dilution; xn = mol fraction of the nth substance listed
Conditions: 101.33 kPa, Liquid, Chromatography, x1 = 0

| SMILES | activity coefficient (313.15 K) | activity coefficient (323.15 K) | activity coefficient (333.15 K) | activity coefficient (343.15 K) |
| --- | --- | --- | --- | --- |
| CC#N [acetonitrile] + CCCCCCCCCCCCCC[P+](CCCCCC)(CCCCCC)CCCCCC.N#C[N-]C#N | 0.574 ± 0.062 | 0.6 ± 0.064 | 0.624 ± 0.066 | 0.651 ± 0.069 |
| C#CCCC [1-pentyne] + CCCCCCCCCCCCCC[P+](CCCCCC)(CCCCCC)CCCCCC.N#C[N-]C#N | 0.413 ± 0.048 | 0.465 ± 0.052 | 0.547 ± 0.059 | 0.619 ± 0.066 |
| CCCCC [pentane] + CCCCCCCCCCCCCC[P+](CCCCCC)(CCCCCC)CCCCCC.N#C[N-]C#N | 1 ± 0.1 | 1.06 ± 0.11 | 1.12 ± 0.11 | 1.19 ± 0.12 |
| CCc1ccccc1 [ethylbenzene] + CCCCCCCCCCCCCC[P+](CCCCCC)(CCCCCC)CCCCCC.N#C[N-]C#N | 0.567 ± 0.061 | 0.606 ± 0.064 | 0.653 ± 0.069 | 0.7 ± 0.073 |
| CCCO [propan-1-ol] + CCCCCCCCCCCCCC[P+](CCCCCC)(CCCCCC)CCCCCC.N#C[N-]C#N | 0.396 ± 0.046 | 0.41 ± 0.047 | 0.424 ± 0.049 | 0.443 ± 0.05 |
| CCC(C)(C)C [2,2-dimethylbutane] + CCCCCCCCCCCCCC[P+](CCCCCC)(CCCCCC)CCCCCC.N#C[N-]C#N | 1.11 ± 0.11 | 1.2 ± 0.12 | 1.28 ± 0.13 | 1.35 ± 0.14 |
| C1CCOC1 [tetrahydrofuran] + CCCCCCCCCCCCCC[P+](CCCCCC)(CCCCCC)CCCCCC.N#C[N-]C#N | 0.351 ± 0.043 | 0.365 ± 0.044 | 0.384 ± 0.045 | 0.404 ± 0.047 |
| C1=CCCCC1 [cyclohexene] + CCCCCCCCCCCCCC[P+](CCCCCC)(CCCCCC)CCCCCC.N#C[N-]C#N | 0.647 ± 0.068 | 0.709 ± 0.074 | 0.76 ± 0.079 | 0.813 ± 0.084 |
| C1CCCCCCC1 [cyclooctane] + CCCCCCCCCCCCCC[P+](CCCCCC)(CCCCCC)CCCCCC.N#C[N-]C#N | 0.89 ± 0.091 | 0.928 ± 0.095 | 0.978 ± 0.099 | 1.05 ± 0.11 |
| CC(C)=O [acetone] + CCCCCCCCCCCCCC[P+](CCCCCC)(CCCCCC)CCCCCC.N#C[N-]C#N | 0.35 ± 0.043 | 0.363 ± 0.044 | 0.383 ± 0.045 | 0.405 ± 0.047 |
| C=CCCCCC [1-heptene] + CCCCCCCCCCCCCC[P+](CCCCCC)(CCCCCC)CCCCCC.N#C[N-]C#N | 1.09 ± 0.11 | 1.13 ± 0.12 | 1.17 ± 0.12 | 1.22 ± 0.13 |
| CCC(C)=O [butanone] + CCCCCCCCCCCCCC[P+](CCCCCC)(CCCCCC)CCCCCC.N#C[N-]C#N | 0.422 ± 0.048 | 0.448 ± 0.051 | 0.478 ± 0.053 | 0.513 ± 0.056 |
| C#CCCCC [1-hexyne] + CCCCCCCCCCCCCC[P+](CCCCCC)(CCCCCC)CCCCCC.N#C[N-]C#N | 0.442 ± 0.05 | 0.513 ± 0.056 | 0.593 ± 0.063 | 0.669 ± 0.07 |
| O [water] + CCCCCCCCCCCCCC[P+](CCCCCC)(CCCCCC)CCCCCC.N#C[N-]C#N | 1.95 ± 0.2 | 1.82 ± 0.19 | 1.73 ± 0.18 | 1.6 ± 0.17 |
| C=CCCCCCCC [1-nonene] + CCCCCCCCCCCCCC[P+](CCCCCC)(CCCCCC)CCCCCC.N#C[N-]C#N | 1.41 ± 0.15 | 1.53 ± 0.16 | 1.67 ± 0.17 | 1.82 ± 0.19 |
| C=CCCCC [hex-1-ene] + CCCCCCCCCCCCCC[P+](CCCCCC)(CCCCCC)CCCCCC.N#C[N-]C#N | 0.915 ± 0.093 | 0.979 ± 0.1 | 1.06 ± 0.11 | 1.11 ± 0.11 |
| c1ccccc1 [benzene] + CCCCCCCCCCCCCC[P+](CCCCCC)(CCCCCC)CCCCCC.N#C[N-]C#N | 0.319 ± 0.04 | 0.363 ± 0.044 | 0.403 ± 0.047 | 0.44 ± 0.05 |

| SMILES | activity coefficient (313.15 K) | activity coefficient (323.15 K) | activity coefficient (333.15 K) | activity coefficient (343.15 K) |
| --- | --- | --- | --- | --- |
| Cc1ccccc1C [1,2-dimethylbenzene] + CCCCCCCCCCCCCC[P+](CCCCCC)(CCCCCC)CCCCCC.N#C[N-]C#N | 0.525 ± 0.057 | 0.566 ± 0.061 | 0.613 ± 0.065 | 0.651 ± 0.069 |
| CCCCCC [hexane] + CCCCCCCCCCCCCC[P+](CCCCCC)(CCCCCC)CCCCCC.N#C[N-]C#N | 1.16 ± 0.12 | 1.24 ± 0.13 | 1.32 ± 0.14 | 1.39 ± 0.14 |
| CO [methanol] + CCCCCCCCCCCCCC[P+](CCCCCC)(CCCCCC)CCCCCC.N#C[N-]C#N | 0.306 ± 0.04 | 0.323 ± 0.041 | 0.344 ± 0.042 | 0.361 ± 0.044 |
| C=CCCC [1-pentene] + CCCCCCCCCCCCCC[P+](CCCCCC)(CCCCCC)CCCCCC.N#C[N-]C#N | 0.796 ± 0.082 | 0.858 ± 0.088 | 0.922 ± 0.094 | 0.994 ± 0.1 |
| C=CCCCCCCCC [1-decene] + CCCCCCCCCCCCCC[P+](CCCCCC)(CCCCCC)CCCCCC.N#C[N-]C#N | 1.58 ± 0.17 | 1.77 ± 0.18 | 1.98 ± 0.21 | 2.19 ± 0.23 |
| Cc1cccc(C)c1 [1,3-dimethylbenzene] + CCCCCCCCCCCCCC[P+](CCCCCC)(CCCCCC)CCCCCC.N#C[N-]C#N | 0.633 ± 0.067 | 0.654 ± 0.069 | 0.689 ± 0.072 | 0.716 ± 0.075 |
| CCO [ethanol] + CCCCCCCCCCCCCC[P+](CCCCCC)(CCCCCC)CCCCCC.N#C[N-]C#N | 0.339 ± 0.042 | 0.359 ± 0.043 | 0.383 ± 0.045 | 0.401 ± 0.047 |
| CCCCCCC [heptane] + CCCCCCCCCCCCCC[P+](CCCCCC)(CCCCCC)CCCCCC.N#C[N-]C#N | 1.36 ± 0.14 | 1.43 ± 0.15 | 1.52 ± 0.16 | 1.61 ± 0.17 |
| c1ccsc1 [thiophene] + CCCCCCCCCCCCCC[P+](CCCCCC)(CCCCCC)CCCCCC.N#C[N-]C#N | 0.372 ± 0.044 | 0.383 ± 0.045 | 0.412 ± 0.048 | 0.429 ± 0.049 |
| C#CCCCCC [1-heptyne] + CCCCCCCCCCCCCC[P+](CCCCCC)(CCCCCC)CCCCCC.N#C[N-]C#N | 0.485 ± 0.054 | 0.57 ± 0.061 | 0.644 ± 0.068 | 0.721 ± 0.075 |
| CCCCCCCCCC [decane] + CCCCCCCCCCCCCC[P+](CCCCCC)(CCCCCC)CCCCCC.N#C[N-]C#N | 2.19 ± 0.23 | 2.34 ± 0.25 | 2.54 ± 0.27 | 2.74 ± 0.29 |
| CCCCCCCCC [nonane] + CCCCCCCCCCCCCC[P+](CCCCCC)(CCCCCC)CCCCCC.N#C[N-]C#N | 1.8 ± 0.19 | 1.93 ± 0.2 | 2.09 ± 0.22 | 2.24 ± 0.23 |
| C1CCCCC1 [cyclohexane] + CCCCCCCCCCCCCC[P+](CCCCCC)(CCCCCC)CCCCCC.N#C[N-]C#N | 0.733 ± 0.076 | 0.78 ± 0.081 | 0.832 ± 0.085 | 0.901 ± 0.092 |
| CCCCO [butan-1-ol] + CCCCCCCCCCCCCC[P+](CCCCCC)(CCCCCC)CCCCCC.N#C[N-]C#N | 0.421 ± 0.048 | 0.445 ± 0.05 | 0.453 ± 0.051 | 0.47 ± 0.052 |
| Cc1ccc(C)cc1 [1,4-dimethylbenzene] + CCCCCCCCCCCCCC[P+](CCCCCC)(CCCCCC)CCCCCC.N#C[N-]C#N | 0.602 ± 0.064 | 0.64 ± 0.068 | 0.68 ± 0.071 | 0.706 ± 0.074 |
| Cc1ccccc1 [toluene] + CCCCCCCCCCCCCC[P+](CCCCCC)(CCCCCC)CCCCCC.N#C[N-]C#N | 0.419 ± 0.048 | 0.458 ± 0.051 | 0.489 ± 0.054 | 0.523 ± 0.057 |

Reference: the NIST ThermoML archive (doi:10.1016/j.fluid.2019.03.023)
